≈ marks a conversion by molar mass, not a printed value.
How the values were obtained:
M109 = test: Cytotoxicity against mouse M109 cells; assay type: functional, cell-based
Saccharomyces cerevisiae = test: Antimicrobial activity against yeast Sc7; assay type: functional

| Structure (SMILES) | IC50 (M109) [µg/mL] | IC12 (Saccharomyces cerevisiae) [µg/mL] |
| --- | --- | --- |
| C/C=C1\C(=O)O[C@]23C=C[C@@H]4C(C(=O)OC)=CO[C@H](O[C@@H]12)[C@@H]43 [ISOPLUMERICIN] | 25 (≈ 86.1 µM) | 42 |
| C/C=C1/C(=O)O[C@]23C=C[C@@H]4C(C(=O)OC)=CO[C@H](O[C@@H]12)[C@@H]43 [PLUMERICIN] | 100 (≈ 345 µM) | 74 |
